Source: patent USRE39706E1, “Crystalline form of a vitamin D analogue” (Leo Pharma A/S, priority 1993, dated 2007)
Read-outs that look alike come from different tables or passages of the source.

Test: Stability studies, storage at 40° C.
Format: physicochemical

Row | degradation after 12 months storage | degradation after 12 months storage (hydrate) | Compound
1 | more than 30% | – | C=C1/C(=C\C=C2/CCC[C@]3(C)[C@@H]([C@H](C)/C=C/[C@@H](O)C4CC4)CC[C@@H]23)C[C@@H](O)C[C@@H]1O [anhydrous form of calcipotriol, (1α,3β,5Z,7E,22E,24S)-24-Cyclopropyl-9,10-secochola-5,7,10(19), 22-tetraene-1,3,24-triol]
2 | – | no degradation | C=C1/C(=C\C=C2/CCC[C@]3(C)[C@@H]([C@H](C)/C=C/[C@@H](O)C4CC4)CC[C@@H]23)C[C@@H](O)C[C@@H]1O [calcipotriol hydrate, calcipotriol, hydrate]
